US10202379B2, “Substituted polycyclic carbamoyl pyridone derivative prodrug” (priority 2010, dated 2019)
pEC50, pIC50: −log10 of the molar value. Read-outs that look alike come from different tables or passages of the source.

Key:
[1] = molecular target: Cap-dependant Endonuclease (CEN) (RNP fraction, PB1-PB2-PA complex) (Influenza A virus (strain A/Wilson-Smith/1933 H1N1) (Influenza A virus (strain A/WS/1933 H1N1)), UniProt P15659); assay type: biochemical, influenza A/WSN/33 virus
influenza virus = assay: microbe, parasite or virus in culture; assay type: cell-based; settings: MDBK or MDCK cells, 3 days, WST-8
[2] = parent compounds (Reference examples), room temperature, 60 minutes
[3] = unidentified influenza virus, 72 h, read-out: CPE EC50, parent compounds (Reference examples)
[4] = parent compounds (Reference examples), read-out: CPE EC50

`COCCN1CC(C(c2ccccc2)c2ccccc2)n2cc(C(=O)O)c(=O)c(O)c2C1=O` (stereo not drawn) [Example 2] was tested, and the pIC50 [1, 2] was 7.32 and the pEC50 (influenza virus; [3]) was 6.53.

With `CN1C(=O)c2c(O)c(=O)c(C(=O)O)cn2C[C@H]1C(c1ccccc1)c1ccccc1` [Example 43] the pEC50 (influenza virus; [3]) was 5.85.

`COCCN1C[C@H](C(c2ccccc2)c2ccccc2)n2cc(CO)c(=O)c(O)c2C1=O` [Example 48] was tested, and the pEC50 (influenza virus; [3]) was 4.96.

`COCCN1C[C@H](C(c2ccccc2)c2ccccc2)n2cc(N)c(=O)c(O)c2C1=O` [Example 56] showed a pEC50 (influenza virus; [3]) of 5.41.

`COCCN1C[C@H](C(c2ccccc2)c2ccccc2)n2cc(OC)c(=O)c(O)c2C1=O` [Example 62] was tested, and the pEC50 (influenza virus; [3]) was 5.77.

Compound `COCCN1C[C@H](C(c2ccccc2)c2ccccc2)n2cc(Br)c(=O)c(O)c2C1=O` [Example 63] has a pEC50 (influenza virus; [3]) of 5.70.

Compound `COCCN1CN(C(c2ccccc2)c2ccccc2)n2cc(C(=O)O)c(=O)c(O)c2C1=O` [Example 94] has a pEC50 (influenza virus; [3]) of 5.83.

`COCCN1CN(Cc2ccccc2-c2ccccc2)n2ccc(=O)c(O)c2C1=O` [Example 99] was tested, and the pEC50 (influenza virus; [3]) was 5.70.

Compound `COCCC(=O)Oc1c2n(ccc1=O)N([C@@H]1c3ccccc3SCc3c(Cl)cccc31)CN([C@H](C)C(F)(F)F)C2=O` [Example 108] has a pIC50 [1] of 7.43 and a pEC50 (influenza virus; [4]) of 7.72.

Compound `CCOC(=O)CCN1CN(C(c2ccccc2)c2ccccc2)n2ccc(=O)c(O)c2C1=O` [Example 128] has a pEC50 (influenza virus; [3]) of 6.38.

Compound `CN(CCN1CN(C(c2ccccc2)c2ccccc2)n2ccc(=O)c(O)c2C1=O)S(=O)(=O)c1ccccc1` [Example 138] has a pEC50 (influenza virus; [3]) of 7.00.

Work on `O=C(NCCN1CN(C(c2ccccc2)c2ccccc2)n2ccc(=O)c(O)c2C1=O)c1ccccc1` [Example 150] yielded a pEC50 (influenza virus; [3]) of 6.26.

`O=C(O)c1cn2c(c(O)c1=O)C(=O)N1CCCO[C@H]1[C@@H]2C(c1ccccc1)c1ccccc1` [Example 175] was tested, and the pEC50 (influenza virus; [3]) was 6.99.

Compound `C[C@@H](N1CN([C@@H]2c3ccccc3SCc3c(Cl)cccc32)n2ccc(=O)c(OCOC(=O)NCCN)c2C1=O)C(F)(F)F` [Example 178] has a pIC50 [1] of 7.21 and a pEC50 (influenza virus; [4]) of 7.12.

`C[C@@H](N1CN(C(c2ccccc2)c2ccccc2Cl)n2ccc(=O)c(O)c2C1=O)C(F)(F)F` (stereo partly drawn) [Reference example 243] showed a pEC50 (influenza virus; [3]) of 7.70.

With `Cc1nnc(CN2CN(C3c4ccccc4CCc4ccccc43)n3ccc(=O)c(O)c3C2=O)o1` [Reference example 256] the pEC50 (influenza virus; [3]) was 6.40.

Compound `O=C1c2c(O)c(=O)ccn2N(C2c3ccccc3CCc3ccccc32)CN1Cc1ncns1` [Reference example 271] has a pEC50 (influenza virus; [3]) of 6.99.

`COCC(COC)N1CN(C2c3ccccc3CCc3ccccc32)n2ccc(=O)c(O)c2C1=O` [Reference example 272] was tested, and the pEC50 (influenza virus; [3]) was 7.52.

`O=C1c2c(O)c(=O)ccn2N(C2c3ccccc3CSc3ccccc32)CN1C1CCC(F)(F)CC1` (stereo not drawn) [Reference example 313] was tested, and the pEC50 (influenza virus; [3]) was 7.30.

`O=C1c2c(O)c(=O)ccn2N(C2c3ccccc3CSc3ccccc32)CN1Cc1ncns1` (stereo not drawn) [Reference example 316] was tested, and the pIC50 [1, 2] was 7.16 and the pEC50 (influenza virus; [3]) was 7.08.

In the case of `CC(C)N1CN(C2c3ccccc3CSc3c(Cl)cccc32)n2ccc(=O)c(O)c2C1=O` (stereo not drawn) [Reference example 326], the pEC50 (influenza virus; [3]) was 8.30.

With `O=C1c2c(O)c(=O)ccn2N(C2c3ccccc3CSc3c(Cl)cccc32)CN1[C@@H]1C[C@@H]1F` (stereo partly drawn) [Reference example 332] the pEC50 (influenza virus; [3]) was 7.70.

Compound `COCCN1CN(C2c3ccccc3CSc3c(F)cccc32)n2ccc(=O)c(O)c2C1=O` (stereo not drawn) [Reference example 336] has a pEC50 (influenza virus; [3]) of 7.15.

With `COCC(COC)N1CN(C2c3ccccc3CSc3c(F)cccc32)n2ccc(=O)c(O)c2C1=O` (stereo not drawn) [Reference example 339] the pEC50 (influenza virus; [3]) was 7.40.

Compound `C[C@@H](N1CN(C2c3ccccc3CSc3cc(F)ccc32)n2ccc(=O)c(O)c2C1=O)C(F)(F)F` (stereo partly drawn) [Reference example 344] has a pEC50 (influenza virus; [3]) of 8.05.

`C[C@@H](N1CN(C2c3ccccc3CSc3ccc(F)cc32)n2ccc(=O)c(O)c2C1=O)C(F)(F)F` (stereo partly drawn) [Reference example 345] was tested, and the pEC50 (influenza virus; [3]) was 8.10.

`CN1CN(C2c3ccccc3CSc3cc(Cl)ccc32)n2ccc(=O)c(O)c2C1=O` (stereo not drawn) [Reference example 348] was tested, and the pEC50 (influenza virus; [3]) was 7.10.

With `CC(C)N1CN(C2c3ccccc3CSc3cc(F)ccc32)n2ccc(=O)c(O)c2C1=O` (stereo not drawn) [Reference example 352] the pEC50 (influenza virus; [3]) was 7.70.

`Cc1cccc2c1SCc1ccccc1C2N1CN(C(C)C)C(=O)c2c(O)c(=O)ccn21` (stereo not drawn) [Reference example 356] was tested, and the pEC50 (influenza virus; [3]) was 7.70.

Compound `CC(=O)OCCN1CN(C2c3ccccc3CSc3c(Cl)cccc32)n2ccc(=O)c(O)c2C1=O` (stereo not drawn) [Reference example 359] has a pEC50 (influenza virus; [3]) of 7.10.

For `C[C@H](CO)N1CN(C2c3ccccc3CSc3ccccc32)n2ccc(=O)c(O)c2C1=O` (stereo partly drawn) [Reference example 373], the pEC50 (influenza virus; [3]) was 7.30.

`C[C@@H](CO)N1CN(C2c3ccccc3CSc3ccccc32)n2ccc(=O)c(O)c2C1=O` (stereo partly drawn) [Reference example 375] gave a pIC50 [1, 2] of 7.43 and a pEC50 (influenza virus; [3]) of 7.14.

In the case of `COCCN1CN(C2c3ccccc3COc3c(Cl)cccc32)n2ccc(=O)c(O)c2C1=O` (stereo not drawn) [Reference example 396], the pEC50 (influenza virus; [3]) was 7.22.

`CC(C)N1CN(C2c3ccccc3COc3c(F)cccc32)n2ccc(=O)c(O)c2C1=O` (stereo not drawn) [Reference example 403] showed a pEC50 (influenza virus; [3]) of 7.15.

For `C[C@@H](N1CN([C@@H]2c3ccccc3CSc3ccccc32)n2ccc(=O)c(O)c2C1=O)C(F)(F)F` [Reference example 414], the pEC50 (influenza virus; [4]) was 6.88.

For `C[C@@H](N1CN([C@@H]2c3ccccc3SCc3c(Cl)cccc32)n2ccc(=O)c(O)c2C1=O)C(F)(F)F` [Reference example 417], the pEC50 (influenza virus; [3]) was 8.52.

`C[C@@H](N1CN([C@H]2c3cc(F)ccc3CSc3ccccc32)n2ccc(=O)c(O)c2C1=O)C(F)(F)F` [Reference example 441] showed a pEC50 (influenza virus; [3]) of 8.30.

`C[C@@H](N1CN([C@H]2c3cc(Cl)ccc3CSc3ccccc32)n2ccc(=O)c(O)c2C1=O)C(F)(F)F` [Reference example 443] showed a pEC50 (influenza virus; [3]) of 8.40.

With `C[C@@H](N1CN([C@H]2c3ccccc3CSc3c(F)cccc32)n2ccc(=O)c(O)c2C1=O)C(F)(F)F` [Reference example 444] the pEC50 (influenza virus; [3]) was 8.52.

In the case of `C[C@@H](N1CN([C@H]2c3ccccc3CSc3ccc(F)cc32)n2ccc(=O)c(O)c2C1=O)C(F)(F)F` [Reference example 448], the pEC50 (influenza virus; [3]) was 8.10.

With `C[C@@H](N1CN([C@H]2c3ccc(F)cc3CSc3ccccc32)n2ccc(=O)c(O)c2C1=O)C(F)(F)F` [Reference example 454] the pEC50 (influenza virus; [3]) was 8.40.

For `C[C@@H](N1CN([C@@H]2c3ccccc3SCc3cccc(F)c32)n2ccc(=O)c(O)c2C1=O)C(F)(F)F` [Reference example 456], the pEC50 (influenza virus; [3]) was 8.40.

Work on `C[C@H](N1CN([C@H]2c3ccc(F)cc3CSc3ccccc32)n2ccc(=O)c(O)c2C1=O)C(F)(F)F` [Reference example 460] yielded a pEC50 (influenza virus; [3]) of 8.05.

Compound `C[C@@H](N1CN([C@@H]2c3ccccc3SCc3c(Br)cccc32)n2ccc(=O)c(O)c2C1=O)C(F)(F)F` [Reference example 463] has a pEC50 (influenza virus; [3]) of 8.30.

Work on `C[C@@H](N1CN([C@H]2c3cccc(F)c3CSc3c(F)cccc32)n2ccc(=O)c(O)c2C1=O)C(F)(F)F` [Reference example 469] yielded a pEC50 (influenza virus; [3]) of 8.40.

For `C[C@@H](N1CN([C@H]2c3ccc(F)cc3CSc3c(F)cccc32)n2ccc(=O)c(O)c2C1=O)C(F)(F)F` [Reference example 470], the pEC50 (influenza virus; [3]) was 8.52.

`CCN(CC)CCN1CN(C2c3ccccc3CCc3ccccc32)n2ccc(=O)c(O)c2C1=O` [Reference example 490] was tested, and the pIC50 [1, 2] was 6.67 and the pEC50 (influenza virus; [3]) was 6.33.

`COC(=O)c1cn2c(c(O)c1=O)C(=O)N1CCCCN1C2C(c1ccccc1)c1ccccc1` (stereo not drawn) [Reference example 506] was tested, and the pIC50 [1, 2] was 6.61 and the pEC50 (influenza virus; [3]) was 5.79.

With `CC(=O)N(C)CC1N(C(C)C)C(=O)c2c(O)c(=O)ccn2N1C1c2ccccc2CCc2ccccc21` (stereo not drawn) [Reference example 525] the pEC50 (influenza virus; [3]) was 7.05.

For `CC(C)N1C(=O)c2c(OCc3ccccc3)c(=O)ccn2N(C2c3ccccc3CCc3ccccc32)C1c1ccc(Cl)cc1` (stereo not drawn) [Reference example 527], the pIC50 [1] was 6.90 and the pEC50 (influenza virus; [4]) was 7.06.

For `CCN(CC)CCC1N(C(C)C)C(=O)c2c(O)c(=O)ccn2N1C1c2ccccc2CCc2ccccc21` (stereo not drawn) [Reference example 538], the pEC50 (influenza virus; [3]) was 7.52.

Compound `CC(C)C1N(CCO)C(=O)c2c(O)c(=O)ccn2N1C1c2ccccc2CCc2ccccc21` (stereo not drawn) [Reference example 553] has a pEC50 (influenza virus; [3]) of 7.52.

Compound `N#CCN1CN(C(c2ccccc2)c2ccccc2)n2ccc(=O)c(O)c2C1=O` [Reference example 574] has a pIC50 [1, 2] of 6.78 and a pEC50 (influenza virus; [3]) of 6.35.

In the case of `C[C@@H](N1CN([C@@H]2c3cccc(F)c3CSc3c(Cl)cccc32)n2ccc(=O)c(O)c2C1=O)C(F)(F)F` [Reference example 597], the pIC50 [1] was 6.47 and the pEC50 (influenza virus; [3]) was 7.31.

With `C[C@@H](N1CN([C@@H]2c3ccc(F)cc3SCc3cccc(F)c32)n2ccc(=O)c(O)c2C1=O)C(F)(F)F` [Reference example 598] the pIC50 [1, 2] was 7.80 and the pEC50 (influenza virus; [3]) was 8.30.

`C[C@@H](N1CN([C@@H]2c3cccc(F)c3SCc3cccc(F)c32)n2ccc(=O)c(O)c2C1=O)C(F)(F)F` [Reference example 599] gave a pIC50 [1, 2] of 7.60 and a pEC50 (influenza virus; [3]) of 8.10.

`COc1cccc2c1CSc1ccccc1[C@H]2N1CN([C@H](C)C(F)(F)F)C(=O)c2c(O)c(=O)ccn21` [Reference example 600] was tested, and the pIC50 [1, 2] was 7.23 and the pEC50 (influenza virus; [3]) was 7.44.

For `O=C1c2c(O)c(=O)ccn2N([C@H]2c3ccccc3CSc3c(F)cccc32)CN1[C@H](CO)C(F)(F)F` [Reference example 611], the pEC50 (influenza virus; [3]) was 7.37.

`Cc1cccc2c1CSc1c(Cl)cccc1[C@H]2N1CN([C@H](C)C(F)(F)F)C(=O)c2c(O)c(=O)ccn21` [Reference example 612] showed a pEC50 (influenza virus; [3]) of 7.89.

Work on `C[C@@H](N1CN([C@H]2c3ccccc3CSc3c(C#N)cccc32)n2ccc(=O)c(O)c2C1=O)C(F)(F)F` [Reference example 618] yielded a pEC50 (influenza virus; [3]) of 7.74.

For `C[C@@H](N1CN([C@H]2c3ccccc3CCc3c(Cl)cccc32)n2ccc(=O)c(O)c2C1=O)C(F)(F)F` [Reference example 639], the pEC50 (influenza virus; [3]) was 7.77.

For `C[C@@H](N1CN([C@H]2c3cccc(C(F)(F)F)c3CSc3c(F)cccc32)n2ccc(=O)c(O)c2C1=O)C(F)(F)F` [Reference example 660], the pEC50 (influenza virus; [3]) was 7.96.
